Each molecule was assayed against T1, recombinant human liver glycogen phosphorylase (Homo sapiens, UniProt P06737) (assay: Measuring liver glycogen phosphorylase activity (forward reaction system, NADPH absorbance at 340 nm)). Conditions: compound concentration 100 nmol (in parentheses).
T1 construct: made in house; host or cells: Sf9 insect cells (crude homogenate, diluted, used as the enzyme solution)
T1 sequence (P06737 1-847): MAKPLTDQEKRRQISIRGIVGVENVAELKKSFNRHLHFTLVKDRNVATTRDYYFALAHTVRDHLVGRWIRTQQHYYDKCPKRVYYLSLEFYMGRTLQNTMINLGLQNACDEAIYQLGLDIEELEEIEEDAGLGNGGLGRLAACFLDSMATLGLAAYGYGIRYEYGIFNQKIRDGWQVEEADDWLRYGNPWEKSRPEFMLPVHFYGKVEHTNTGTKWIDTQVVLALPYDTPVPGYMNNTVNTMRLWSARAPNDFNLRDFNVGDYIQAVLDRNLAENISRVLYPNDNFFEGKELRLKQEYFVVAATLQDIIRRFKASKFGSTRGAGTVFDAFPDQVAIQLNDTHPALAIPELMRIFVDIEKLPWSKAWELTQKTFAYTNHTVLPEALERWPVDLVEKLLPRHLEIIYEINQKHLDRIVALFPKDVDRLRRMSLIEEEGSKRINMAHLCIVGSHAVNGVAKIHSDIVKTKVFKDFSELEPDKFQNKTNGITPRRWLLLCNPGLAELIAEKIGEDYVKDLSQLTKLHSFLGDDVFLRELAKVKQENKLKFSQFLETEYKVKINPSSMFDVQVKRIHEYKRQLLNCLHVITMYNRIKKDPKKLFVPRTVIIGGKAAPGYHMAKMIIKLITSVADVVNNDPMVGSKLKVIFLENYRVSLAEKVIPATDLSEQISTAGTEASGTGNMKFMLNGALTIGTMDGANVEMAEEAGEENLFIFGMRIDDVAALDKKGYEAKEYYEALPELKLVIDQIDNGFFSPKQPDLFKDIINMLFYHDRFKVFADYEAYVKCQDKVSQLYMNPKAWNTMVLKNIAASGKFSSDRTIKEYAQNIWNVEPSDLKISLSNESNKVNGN
Assay type: biochemical
Procedure, shortened: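 Sf9 homogenate expressing the enzyme, in pH 6.8 BES/EDTA, with glycogen and phosphate substrate plus glucose, coupled via phosphoglucomutase/G6PDH to NADPH formation. A340 change over 75 min at room temperature, blank-corrected; IC50 linearly interpolated between the two concentrations bracketing 50% inhibition versus 1% DMSO control.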

Row | inhibition rate (%) at a certain concentration | SMILES
1 | 17.8% (100) | O=C(Nc1cccc2ncccc12)c1cc(NC(=O)c2cc(F)c(F)cc2Cl)[nH]n1 [Example 5-36]
2 | 22.3% (100) | O=C(Nc1cccc2cccnc12)c1cc(NC(=O)c2cc(F)c(F)cc2Cl)[nH]n1 [Example 5-37]
3 | 15.2% (100) | O=C(Nc1cccc2cnccc12)c1cc(NC(=O)c2cc(F)c(F)cc2Cl)[nH]n1 [Example 5-38]

Same assay, conditions: compound concentration 100 nmol (in parentheses); read-out: inhibition rate (%) at a certain concentration

Row | inhibition at 0.1 µM [%] | SMILES
4 | 5.7 | O=C(NCc1ccccc1)c1cc(NC(=O)c2ccncc2Cl)[nH]n1 [Example 4-44]
5 | 5.9 | CCCCN(C(=O)c1cc(NC(=O)c2cc(F)c(F)cc2Cl)[nH]n1)c1ccc(CC(=O)OCC)cc1 [Example 4-45]
6 | 1.2 | COCCN(C(=O)c1cc(NC(=O)c2cc(F)c(F)cc2Cl)[nH]n1)c1ccc(C(=O)OC)cc1 [Example 4-47]

Same assay, conditions: compound concentration 300 nmol (in parentheses); read-out: inhibition rate (%) at a certain concentration

Row | inhibition at 0.3 µM [%] | SMILES
7 | 1.1 | CN(C)CCNC(=O)c1cc(NC(=O)c2cc(F)c(F)cc2Cl)[nH]n1 [Example 3-42]
8 | 13.4 | CCN(CCN(C)C)C(=O)c1cc(NC(=O)c2cc(F)c(F)cc2Cl)[nH]n1 [Example 3-43]
9 | 38 | Cc1ccc(Cl)cc1C(=O)Nc1cc(C(=O)NCc2ccccc2)n[nH]1 [Example 4-13]
10 | 10.6 | COc1ccc(C(=O)Nc2cc(C(=O)NCc3ccccc3)n[nH]2)c(C)c1 [Example 4-14]
11 | 5.1 | COc1ccc(F)cc1C(=O)Nc1cc(C(=O)NCc2ccccc2)n[nH]1 [Example 4-16]
12 | 1.1 | COc1ccc(Cl)cc1C(=O)Nc1cc(C(=O)NCc2ccccc2)n[nH]1 [Example 4-17]
13 | 3.3 | Cc1ccc(F)c(C(=O)Nc2cc(C(=O)NCc3ccccc3)n[nH]2)c1 [Example 4-19]
14 | 3.3 | O=C(NCc1ccccc1)c1cc(NC(=O)c2cc(Cl)ccc2F)[nH]n1 [Example 4-20]
15 | 24.2 | O=C(NCc1ccccc1)c1cc(NC(=O)c2c(F)ccc(Cl)c2F)[nH]n1 [Example 4-21]
16 | 7.8 | O=C(NCc1ccccc1)c1cc(NC(=O)c2ccc(F)cc2C(F)(F)F)[nH]n1 [Example 4-32]
17 | 15.2 | O=C(NCc1ccccc1)c1cc(NC(=O)c2cc(F)ccc2C(F)(F)F)[nH]n1 [Example 4-33]
18 | 9.7 | Cc1ccc(C)c(C(=O)Nc2cc(C(=O)NCc3ccccc3)n[nH]2)c1 [Example 4-35]
19 | 5.3 | O=C(NCc1ccccc1)c1cc(NC(=O)c2ccc(Cl)nc2Cl)[nH]n1 [Example 4-39]
20 | 3.6 | CCCCN(C(=O)c1cc(NC(=O)c2cc(F)c(F)cc2Cl)[nH]n1)c1ccc(C(=O)OCC)cc1 [Example 4-40]
21 | 8.5 | Cc1ncccc1C(=O)Nc1cc(C(=O)NCc2ccccc2)n[nH]1 [Example 4-42]
22 | 3.8 | Cc1ccc(C(=O)Nc2cc(C(=O)NCc3ccccc3)n[nH]2)c(Cl)n1 [Example 4-43]

Same assay, conditions: compound concentration 590 nmol (in parentheses); read-out: inhibition rate (%) at a certain concentration

Row | inhibition at 0.59 µM [%] | SMILES
23 | 50 | CC(C)(NC(=O)c1cc(NC(=O)c2cc(F)c(F)cc2Cl)[nH]n1)c1ccccc1 [Example 4-10]

Same assay, conditions: compound concentration 1000 nmol (in parentheses); read-out: inhibition rate (%) at a certain concentration

Row | inhibition at 1 µM [%] | SMILES
24 | 13.8 | COC(=O)c1ccc(N(C)C(=O)c2cc(NC(=O)c3cc(F)c(F)cc3Cl)[nH]n2)cc1 [Example 4-1, methyl 5-(2-chloro-4,5-difluorobenzoylamino)-1H-pyrazole-3-carbocylic acid (4-methoxycarbonyl-phenyl)-methyl-amide]

Same assay, conditions: enzyme inhibitory activity with respect to liver glycogen phosphorylase; class symbols

Row | IC50 [nM] | SMILES
25 | 100 to 300 | CN(C)CCN(C(=O)c1cc(NC(=O)c2cc(F)c(F)cc2Cl)[nH]n1)C1CCCCC1 [Example 3-44]
26 | < 100 | COC(=O)COc1ccccc1CNC(=O)c1cc(NC(=O)c2cc(F)c(F)cc2Cl)[nH]n1 [Example 3-47]
27 | < 100 | O=C(O)COc1ccccc1CNC(=O)c1cc(NC(=O)c2cc(F)c(F)cc2Cl)[nH]n1 [Example 3-48]
28 | < 100 | COc1ccc(CNC(=O)c2cc(NC(=O)c3ccc(Cl)cc3Cl)[nH]n2)cn1 [Example 3-50]
29 | < 100 | COc1cncc(OC)c1CNC(=O)c1cc(NC(=O)c2cc(F)c(F)cc2Cl)[nH]n1 [Example 3-51]
30 | < 100 | Cc1nc(C)c(CNC(=O)c2cc(NC(=O)c3cc(F)c(Cl)cc3Cl)[nH]n2)o1 [Example 3-53]
31 | 100 to 300 | CC(C)N(C(=O)c1cc(NC(=O)c2cc(F)c(F)cc2Cl)[nH]n1)c1ccccc1 [Example 4-3]
32 | 100 to 300 | O=C(O)CN(C(=O)c1cc(NC(=O)c2cc(F)c(F)cc2Cl)[nH]n1)c1ccccc1 [Example 4-5]
33 | 100 to 300 | O=C(NCc1ccccc1)c1cc(NC(=O)c2ccc(F)cc2Cl)[nH]n1 [Example 4-6]
34 | 100 to 300 | O=C(NCc1ccccc1)c1cc(NC(=O)c2ccc(Cl)cc2Cl)[nH]n1 [Example 4-7]
35 | 100 to 300 | O=C(NCc1ccccc1)c1cc(NC(=O)c2cc(F)ccc2Cl)[nH]n1 [Example 4-8]
36 | < 100 | O=C(Nc1cc(C(=O)N(CC(=O)N2CCCCC2)c2ccccc2)n[nH]1)c1cc(F)c(F)cc1Cl [Example 4-11]
37 | 100 to 300 | Cc1ccc(F)cc1C(=O)Nc1cc(C(=O)NCc2ccccc2)n[nH]1 [Example 4-12]
38 | 100 to 300 | Cc1cc(Cl)ccc1C(=O)Nc1cc(C(=O)NCc2ccccc2)n[nH]1 [Example 4-15]
39 | 100 to 300 | CC(C)CN(C(=O)c1cc(NC(=O)c2cc(F)c(F)cc2Cl)[nH]n1)c1ccccc1 [Example 4-24]
40 | < 100 | COC(=O)CCN(C(=O)c1cc(NC(=O)c2cc(F)c(F)cc2Cl)[nH]n1)c1ccccc1 [Example 4-25]
41 | < 100 | CCOC(=O)CCCN(C(=O)c1cc(NC(=O)c2cc(F)c(F)cc2Cl)[nH]n1)c1ccccc1 [Example 4-26]
42 | 100 to 300 | O=C(O)CCN(C(=O)c1cc(NC(=O)c2cc(F)c(F)cc2Cl)[nH]n1)c1ccccc1 [Example 4-27]
43 | 100 to 300 | O=C(O)CCCN(C(=O)c1cc(NC(=O)c2cc(F)c(F)cc2Cl)[nH]n1)c1ccccc1 [Example 4-28]
44 | < 100 | O=C(NCCN1CCOCC1)c1ccc(CNC(=O)c2cc(NC(=O)c3cc(F)c(F)cc3Cl)[nH]n2)cc1 [Example 5-4]
45 | < 100 | O=C(NN1CCOCC1)c1ccc(CNC(=O)c2cc(NC(=O)c3cc(F)c(F)cc3Cl)[nH]n2)cc1 [Example 5-5]
46 | < 100 | O=C(O)CNC(=O)c1ccc(CNC(=O)c2cc(NC(=O)c3cc(F)c(F)cc3Cl)[nH]n2)cc1 [Example 5-6]
47 | < 100 | O=C(O)CCNC(=O)c1ccc(CNC(=O)c2cc(NC(=O)c3cc(F)c(F)cc3Cl)[nH]n2)cc1 [Example 5-7]
48 | < 100 | O=C(NCCN1CCOCC1)c1cccc(CNC(=O)c2cc(NC(=O)c3cc(F)c(F)cc3Cl)[nH]n2)c1 [Example 5-11]
49 | < 100 | NCc1ccnc(CNC(=O)c2cc(NC(=O)c3cc(F)c(F)cc3Cl)[nH]n2)c1 [Example 5-18]
50 | < 100 | CN1CCN(c2ccc(CNC(=O)c3cc(NC(=O)c4cc(F)c(F)cc4Cl)[nH]n3)cn2)CC1 [Example 5-39]
51 | < 100 | CN(C)C1CCN(c2ccc(CNC(=O)c3cc(NC(=O)c4cc(F)c(F)cc4Cl)[nH]n3)cn2)CC1 [Example 5-40]

Same assay, conditions: figure in brackets (100); read-out: IC50: % value given with (100)

Row | inhibition at 0.1 µM [%] | SMILES
52 | 15.5 | NC(=O)CNC(=O)c1cc(NC(=O)c2cc(F)c(F)cc2Cl)[nH]n1 [Example 6-1]

Same assay, conditions: figure in brackets (300); read-out: IC50 column: % value printed with (300)

Row | inhibition at 0.3 µM [%] | SMILES
53 | 12.3 | CN(C(=O)c1cc(NC(=O)c2cc(F)c(Cl)cc2Cl)[nH]n1)c1ccc(C(N)=O)cc1 [Example 6-2]
54 | 9.7 | CNC(=O)c1ccc(N(C)C(=O)c2cc(NC(=O)c3cc(F)c(Cl)cc3Cl)[nH]n2)cc1 [Example 6-3]

— patent publication US20070032529A1, “Pyrazole compounds and their use as antidiabetes agents” (Japan Tobacco Inc., priority 2005, published 2007)
